Test: Inhibition of SDHB in human U2OS cells over-expressing Bim assessed as inhibition of apoptosis preincubated for 1 hr followed by doxycyclin addition to induce Bim protein expression measured after 24 hrs by Cell Titer-Glo assay

Structure (SMILES) | EC50
CS(=O)(=O)c1nc(-c2cccc(Oc3ccccc3)c2)cc(C(F)(F)F)n1 | 8.76 µM
CS(=O)(=O)c1nc(-c2ccc(=O)n(Cc3cccc(O)c3)c2)cc(C(F)(F)F)n1 | 1.82 µM
CCCOc1cccc(Cn2cc(-c3cc(C(F)(F)F)nc(S(C)(=O)=O)n3)ccc2=O)c1 | 0.069 µM
COc1ccc(Cn2cc(-c3cc(C(F)(F)F)nc(S(=O)(=O)CCCC(=O)N(C)C)n3)ccc2=O)cc1OC | 0.164 µM
Cc1ccccc1-c1cc(C(F)(F)F)nc(S(C)(=O)=O)n1 | 6.64 µM
Cc1ccc(O)c(NC(=O)CCCS(=O)(=O)c2nc(-c3cccs3)cc(C(F)(F)F)n2)c1 | 4 µM
CS(=O)(=O)c1nc(N=[N+]=[N-])cc(-c2cccs2)n1 | > 20 µM
O=S(=O)(CCc1ccccc1)c1nc(-c2cccs2)cc(C(F)(F)F)n1 | 1.59 µM
Cc1ccc(-c2cc(C(F)(F)F)nc(S(C)(=O)=O)n2)cc1 | 6.36 µM
COc1ccc(Cn2cc(-c3cc(C(F)(F)F)nc(S(C)(=O)=O)n3)ccc2=O)cc1 | 0.094 µM
C#Cc1ccc(Cn2cc(-c3cc(C(F)(F)F)nc(S(C)(=O)=O)n3)ccc2=O)cc1 | 0.817 µM
COC(=O)c1ccccc1-c1cc(C(F)(F)F)nc(S(C)(=O)=O)n1 | 7.03 µM
COC(=O)c1cccc(-c2cc(C(F)(F)F)nc(S(C)(=O)=O)n2)c1 | 3.52 µM
COc1ccc(Cn2cc(-c3cc(C(F)(F)F)nc(S(=O)(=O)CCCC(N)=O)n3)ccc2=O)cc1OC | > 20 µM
C#Cc1cccc(Cn2cc(-c3cc(C(F)(F)F)nc(S(C)(=O)=O)n3)ccc2=O)c1 | 4.48 µM
COCCCS(=O)(=O)c1nc(-c2ccc(=O)n(Cc3ccc(OC)c(OC)c3)c2)cc(C(F)(F)F)n1 | 0.282 µM
COCCS(=O)(=O)c1nc(-c2ccc(=O)n(Cc3ccc(OC)c(OC)c3)c2)cc(C(F)(F)F)n1 | 0.216 µM
COC(=O)c1ccc(-c2cc(C(F)(F)F)nc(S(C)(=O)=O)n2)cc1 | > 20 µM
COc1ccc(Cn2cc(-c3cc(C(F)(F)F)nc(S(=O)(=O)CCCC(=O)N4CCCC4)n3)ccc2=O)cc1OC | 0.027 µM
CS(=O)(=O)c1nc(-c2cccs2)cc(-c2cccs2)n1 | > 20 µM
CS(=O)(=O)c1nc(-c2ccc(=O)n(Cc3ccccc3)c2)cc(C(F)(F)F)n1 | 1.16 µM
O=S(=O)(Cc1ccc(-c2ccccc2)cc1)c1nc(-c2cccs2)cc(C(F)(F)F)n1 | 4.21 µM

Structure (SMILES) | EC50
CS(=O)(=O)c1nc(-c2cccs2)cc(C(F)(F)F)n1 [MLS000044645] | 0.749 µM
COc1ccc(Cn2cc(-c3cc(C(F)(F)F)nc(S(=O)(=O)CCCC(=O)NC45CC6CC(CC(C6)C4)C5)n3)ccc2=O)cc1OC | 0.00042 µM
CS(=O)(=O)c1nc(-c2ccc(=O)[nH]c2)cc(C(F)(F)F)n1 | > 20 µM
CN(C)C(=O)c1cccc(-c2cc(C(F)(F)F)nc(S(C)(=O)=O)n2)c1 | > 20 µM
CS(=O)(=O)c1nc(-c2cccs2)cc(C2CCC(=O)N2)n1 (centres undefined) | > 20 µM
CS(=O)(=O)c1nc(-c2ccc(=O)n(Cc3ccccc3Cl)c2)cc(C(F)(F)F)n1 | 1.14 µM
Cc1cccc(-c2cc(C(F)(F)F)nc(S(C)(=O)=O)n2)c1 | 3.49 µM
CCCCCS(=O)(=O)c1nc(-c2ccc(=O)n(Cc3ccc(OC)c(OC)c3)c2)cc(C(F)(F)F)n1 | 0.364 µM
COc1ccc(Cn2cc(-c3cc(C(F)(F)F)nc(S(=O)(=O)CCCC(=O)N4CCCCC4)n3)ccc2=O)cc1OC | 0.0014 µM
CS(=O)(=O)c1nc(-c2ccc(=O)n(Cc3cccc(C#N)c3)c2)cc(C(F)(F)F)n1 | 4.06 µM
Cc1cc(-c2cccs2)nc(S(C)(=O)=O)n1 | > 20 µM
CCOc1cccc(Cn2cc(-c3cc(C(F)(F)F)nc(S(C)(=O)=O)n3)ccc2=O)c1 | 0.11 µM
CS(=O)(=O)c1nc(-c2ccccc2)cc(C(F)(F)F)n1 [MLS000044644] | 2.2 µM
CS(=O)(=O)c1nc(-c2ccc(=O)n(Cc3ccc(C#N)cc3)c2)cc(C(F)(F)F)n1 | 3.49 µM
CCCCCCCS(=O)(=O)c1nc(-c2ccc(=O)n(Cc3ccc(OC)c(OC)c3)c2)cc(C(F)(F)F)n1 | 0.253 µM
COc1ccc(Cn2cc(-c3cc(C(F)(F)F)nc(S(C)(=O)=O)n3)ccc2=O)cc1OC | 0.025 µM
CCOC(=O)CCS(=O)(=O)c1nc(-c2cccs2)cc(C(F)(F)F)n1 | 1.14 µM
COc1cccc(Cn2cc(-c3cc(C(F)(F)F)nc(S(C)(=O)=O)n3)ccc2=O)c1 | 0.057 µM
CCS(=O)(=O)c1nc(-c2cccs2)cc(C(F)(F)F)n1 | 1.43 µM
CS(=O)(=O)c1nc(-c2ccc(=O)n(Cc3ccc(Cl)cc3)c2)cc(C(F)(F)F)n1 | 0.066 µM
CS(=O)(=O)c1nc(-c2ccc(=O)n(Cc3cccc(Cl)c3)c2)cc(C(F)(F)F)n1 | 0.257 µM

Test: Inhibition of SDHB in human U2OS cells over-expressing tBid assessed as reduction in apoptosis preincubated for 1 hr followed by doxycyclin addition to induce tBid protein expression measured after 24 hrs by Cell Titer-Glo assay

Structure (SMILES) | EC50
COc1ccc(Cn2cc(-c3cc(C(F)(F)F)nc(S(=O)(=O)CCCC(=O)NC45CC6CC(CC(C6)C4)C5)n3)ccc2=O)cc1OC | 0.00023 µM

Reference: BindingDB's records for doi:10.1021/acsmedchemlett.6b00489 (Peking University, 2017)
